Where two headings read alike, the source gives them in different places.
Tests used:
[1] = biological target: CYP3A4 (Homo sapiens, UniProt P08684); experiment: CYP inhibition in human liver microsomes, CYP3A4; assay type: in vitro ADME
[2] = biological target: T1, ER α-glucosidase I (Bos taurus, UniProt A0A3Q1M9D9); assay type: cell-based
T1 sequence (A0A3Q1M9D9 1-839): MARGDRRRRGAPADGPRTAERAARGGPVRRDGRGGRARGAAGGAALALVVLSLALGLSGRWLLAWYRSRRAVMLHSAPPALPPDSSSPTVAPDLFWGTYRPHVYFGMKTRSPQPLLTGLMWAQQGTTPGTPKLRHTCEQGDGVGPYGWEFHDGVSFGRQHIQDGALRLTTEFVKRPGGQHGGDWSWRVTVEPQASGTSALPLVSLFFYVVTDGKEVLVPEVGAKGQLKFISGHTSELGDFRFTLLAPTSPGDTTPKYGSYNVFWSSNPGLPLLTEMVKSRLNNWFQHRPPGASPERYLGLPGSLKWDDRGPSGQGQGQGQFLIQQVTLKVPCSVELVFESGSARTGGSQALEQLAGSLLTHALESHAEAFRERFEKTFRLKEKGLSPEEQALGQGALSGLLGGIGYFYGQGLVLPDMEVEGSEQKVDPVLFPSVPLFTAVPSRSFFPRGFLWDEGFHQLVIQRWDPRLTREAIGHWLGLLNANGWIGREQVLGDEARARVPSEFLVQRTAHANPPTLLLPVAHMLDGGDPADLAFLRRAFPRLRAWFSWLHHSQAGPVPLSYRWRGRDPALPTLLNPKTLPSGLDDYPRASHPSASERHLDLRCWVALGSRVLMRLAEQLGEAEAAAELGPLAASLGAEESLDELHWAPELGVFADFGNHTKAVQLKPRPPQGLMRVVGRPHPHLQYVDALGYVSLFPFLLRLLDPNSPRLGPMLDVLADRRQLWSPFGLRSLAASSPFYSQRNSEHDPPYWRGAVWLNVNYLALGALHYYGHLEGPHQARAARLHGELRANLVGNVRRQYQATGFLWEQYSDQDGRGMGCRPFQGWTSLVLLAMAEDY

[3] = biological target: CYP2C19 (Homo sapiens, UniProt P33261); experiment: CYP inhibition in human liver microsomes, CYP2C19; assay type: in vitro ADME
[4] = in vitro; assay type: in vitro ADME; settings: dog, microsomes
[5] = system: DENV (serotype 2, New Guinea C isolate); experiment: microbe, parasite or virus in culture; assay type: cell-based; settings: Dengue virus, DENV2, 120 h; Vero cells, MOI 0.01, 5 days; mean of duplicate
[6] = in vitro; assay type: cell-based, canine; settings: dog
[7] = system: DENV2 strain S221; experiment: Dengue viral load by qRT-PCR in serum and tissues of AG129 mice; assay type: in vivo; settings: 100 mg/kg TID
[8] = physchem; settings: aqueous buffer
[9] = system: circulating cytokines and chemokines; experiment: Serum cytokine levels in DENV infected AG129 mice (23-plex); assay type: in vivo; settings: 100 mg/kg TID
[10] = in vitro; assay type: in vitro ADME; settings: mouse, plasma
[11] = system: Venezuelan Equine Encephalitis virus (VEEV, TC-83 vaccine strain); experiment: microbe, parasite or virus in culture; assay type: cell-based; settings: Vero, 72 h, read-out: IC50 VEEV
[12] = biological target: CYP2C9 (Homo sapiens, UniProt P11712); experiment: CYP inhibition in human liver microsomes, CYP2C9; assay type: in vitro ADME
[13] = in vitro; assay type: in vitro ADME; settings: rat, plasma
[14] = biological target: T2, ER α-glucosidase I (Rattus norvegicus, UniProt O88941); experiment: Purified enzyme inhibition, ER α-glucosidase I; assay type: biochemical
T2 sequence (O88941 1-834): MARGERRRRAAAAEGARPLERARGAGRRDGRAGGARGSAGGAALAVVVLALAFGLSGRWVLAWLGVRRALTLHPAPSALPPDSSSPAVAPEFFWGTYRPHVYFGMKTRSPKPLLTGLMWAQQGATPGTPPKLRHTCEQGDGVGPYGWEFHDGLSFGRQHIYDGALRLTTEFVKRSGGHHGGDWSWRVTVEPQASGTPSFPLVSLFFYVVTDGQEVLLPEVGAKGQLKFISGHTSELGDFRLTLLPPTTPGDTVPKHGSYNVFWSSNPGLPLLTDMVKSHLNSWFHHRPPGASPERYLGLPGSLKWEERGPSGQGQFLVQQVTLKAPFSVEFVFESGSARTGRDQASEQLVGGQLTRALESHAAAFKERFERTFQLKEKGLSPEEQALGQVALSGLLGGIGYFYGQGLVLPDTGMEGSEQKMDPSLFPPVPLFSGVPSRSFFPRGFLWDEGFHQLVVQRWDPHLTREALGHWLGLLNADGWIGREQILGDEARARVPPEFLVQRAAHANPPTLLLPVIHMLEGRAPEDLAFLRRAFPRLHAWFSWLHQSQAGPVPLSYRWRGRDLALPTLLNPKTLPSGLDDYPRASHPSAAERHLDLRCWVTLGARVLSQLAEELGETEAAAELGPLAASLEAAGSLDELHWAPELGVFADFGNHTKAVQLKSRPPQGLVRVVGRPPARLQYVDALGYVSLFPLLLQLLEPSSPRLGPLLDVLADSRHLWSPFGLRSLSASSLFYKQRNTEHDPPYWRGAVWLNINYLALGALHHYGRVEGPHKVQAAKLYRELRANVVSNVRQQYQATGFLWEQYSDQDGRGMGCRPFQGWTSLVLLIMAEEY

[15] = biological target: ER α-glucosidase II (Rattus norvegicus, UniProt A0A8I6GFL3); experiment: Purified enzyme inhibition, ER α-glucosidase II; assay type: biochemical; settings: rat liver enzyme
[16] = in vitro; assay type: cell-based; settings: African green monkey
[17] = 10 day repeat dose oral safety study in mice; assay type: in vivo, Swiss Albino mice; settings: male mice
[18] = 72 h post infection, vs vehicle
[19] = 100 mg/kg PO TID 10 days, vs control

Sequence of ER α-glucosidase II (A0A8I6GFL3 33-944): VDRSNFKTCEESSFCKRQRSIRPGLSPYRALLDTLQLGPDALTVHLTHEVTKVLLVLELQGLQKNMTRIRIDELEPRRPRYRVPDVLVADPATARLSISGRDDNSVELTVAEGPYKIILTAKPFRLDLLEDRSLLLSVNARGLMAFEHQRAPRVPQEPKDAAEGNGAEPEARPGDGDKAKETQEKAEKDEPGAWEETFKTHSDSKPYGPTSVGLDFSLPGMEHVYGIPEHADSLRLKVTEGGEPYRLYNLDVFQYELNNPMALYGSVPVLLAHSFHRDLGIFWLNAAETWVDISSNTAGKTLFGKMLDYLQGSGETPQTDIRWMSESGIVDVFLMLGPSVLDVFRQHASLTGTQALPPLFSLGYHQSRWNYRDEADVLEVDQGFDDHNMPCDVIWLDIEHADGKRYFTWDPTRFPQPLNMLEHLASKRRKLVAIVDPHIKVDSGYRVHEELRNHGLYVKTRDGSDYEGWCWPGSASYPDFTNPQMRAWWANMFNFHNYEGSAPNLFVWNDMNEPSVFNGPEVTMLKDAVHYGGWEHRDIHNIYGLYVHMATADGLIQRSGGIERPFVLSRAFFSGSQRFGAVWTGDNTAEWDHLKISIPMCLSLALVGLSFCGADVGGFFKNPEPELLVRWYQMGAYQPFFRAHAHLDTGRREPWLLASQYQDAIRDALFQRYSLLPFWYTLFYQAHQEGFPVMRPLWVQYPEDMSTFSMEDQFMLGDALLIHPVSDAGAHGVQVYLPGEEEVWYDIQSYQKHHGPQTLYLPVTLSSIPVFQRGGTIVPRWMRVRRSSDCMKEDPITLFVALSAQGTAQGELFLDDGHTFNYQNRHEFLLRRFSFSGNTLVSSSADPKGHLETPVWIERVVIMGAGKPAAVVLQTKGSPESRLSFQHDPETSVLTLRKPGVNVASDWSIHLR
Sequence of CYP2C9 (P11712 whole entry): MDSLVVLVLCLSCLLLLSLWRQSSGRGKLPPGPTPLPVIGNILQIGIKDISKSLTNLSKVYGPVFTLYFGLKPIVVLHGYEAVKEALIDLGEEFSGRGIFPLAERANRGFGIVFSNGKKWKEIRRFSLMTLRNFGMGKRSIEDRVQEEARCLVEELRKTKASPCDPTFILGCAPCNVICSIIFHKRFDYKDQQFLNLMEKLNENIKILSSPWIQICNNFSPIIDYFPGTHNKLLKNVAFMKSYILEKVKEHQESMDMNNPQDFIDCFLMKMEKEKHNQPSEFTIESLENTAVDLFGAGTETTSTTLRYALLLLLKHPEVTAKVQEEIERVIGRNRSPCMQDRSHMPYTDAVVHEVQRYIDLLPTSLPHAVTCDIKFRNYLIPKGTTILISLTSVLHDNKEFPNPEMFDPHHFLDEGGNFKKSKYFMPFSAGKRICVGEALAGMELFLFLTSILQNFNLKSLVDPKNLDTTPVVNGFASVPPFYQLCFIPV
Sequence of CYP3A4 (P08684 whole entry): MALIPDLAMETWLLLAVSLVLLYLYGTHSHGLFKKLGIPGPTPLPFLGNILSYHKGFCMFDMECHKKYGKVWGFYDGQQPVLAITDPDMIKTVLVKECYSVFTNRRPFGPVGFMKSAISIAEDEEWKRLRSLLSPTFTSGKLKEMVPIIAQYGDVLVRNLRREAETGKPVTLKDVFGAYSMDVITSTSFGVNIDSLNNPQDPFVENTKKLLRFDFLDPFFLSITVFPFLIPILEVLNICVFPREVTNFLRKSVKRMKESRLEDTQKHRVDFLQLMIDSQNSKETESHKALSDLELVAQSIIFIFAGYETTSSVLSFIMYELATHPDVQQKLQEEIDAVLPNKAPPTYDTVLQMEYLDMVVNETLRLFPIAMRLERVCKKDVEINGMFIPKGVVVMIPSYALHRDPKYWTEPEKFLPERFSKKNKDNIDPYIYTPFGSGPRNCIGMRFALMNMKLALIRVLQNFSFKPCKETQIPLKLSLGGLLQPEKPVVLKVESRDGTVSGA
Sequence of CYP2C19 (P33261 whole entry): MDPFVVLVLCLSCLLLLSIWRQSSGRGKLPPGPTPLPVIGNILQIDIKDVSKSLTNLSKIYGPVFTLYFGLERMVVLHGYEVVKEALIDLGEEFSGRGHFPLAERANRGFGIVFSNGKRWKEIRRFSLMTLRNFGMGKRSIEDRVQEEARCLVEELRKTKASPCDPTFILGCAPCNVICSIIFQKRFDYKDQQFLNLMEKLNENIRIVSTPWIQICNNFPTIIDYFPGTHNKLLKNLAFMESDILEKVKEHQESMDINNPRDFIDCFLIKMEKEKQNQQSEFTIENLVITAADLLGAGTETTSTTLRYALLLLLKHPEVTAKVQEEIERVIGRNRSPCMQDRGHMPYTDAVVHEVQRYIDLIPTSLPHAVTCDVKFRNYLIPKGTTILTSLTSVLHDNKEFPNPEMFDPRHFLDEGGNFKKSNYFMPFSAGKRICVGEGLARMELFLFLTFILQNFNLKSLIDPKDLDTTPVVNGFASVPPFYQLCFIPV

OC[C@@H]1[C@@H](O)[C@H](O)[C@@H](O)CN1CCCCCCCCC1CCCO1 (stereo partly shown) [UV-12]
IC50 [1]: > 100 µM
cellular half-life of UV-12 inhibition (blockage of α-glucosidase I) [2]: 5.11 ± 1.82 h
reversibility of inhibition in cells ([2]; MDBK cells): reversible inhibitor
IC50 [3]: > 100 µM
Liver microsome metabolic stability CLintr [4]: <0.6 mL/min/g liver
half-life at 0.5 µM [4]: > 0.5 h
parent drug remained after 30 min ([4]; 0.5 h, 0.5 µM): 100%
IC50 [5]: 21.7 µM
CC50 at 5 days [6]: > 500 µM
viral loads in serum, liver or spleens ([7]; 72 and 96 h): not reduced
decrease in viral load, kidneys [7, 18]: 12.9 fold
decrease in viral load, small intestine [7, 18]: 6.1 fold
increase in virus titers, spleens ([7]; 72 h time point): 5 fold
decrease in viral load, kidneys ([7]; 96 h post infection, vs vehicle): 5.23 fold
solubility [8]: > 100 mg/mL
Levels of IL-9 and eotaxin [9]: not different
reduction in MCP-1 ([9]; 72 h, p = 0.0641): not significant
KC levels ([9]; 72 h only): significantly higher
Levels of IFN-γ ([9]; only at 72 h): significantly reduced
MIP-1β, RANTES, and IL-10 levels ([9]; only at 96 h): reduced
overall circulating cytokine levels ([9]; vs vehicle): dampened
fraction unbound at 6 h, 10 μM [10]: 0.36
IC50 [11]: 69.4 µM
IC50 [12]: > 100 µM
fraction unbound at 6 h, 10 μM [13]: 0.32
IC50 [14]: 0.14 ± 0.1 µM
IC50 ([15]; Glc1 substrate, mean and SD, triplicate, read-out: IC50 α-glc II, Glc1): 0.83 ± 0.37 µM
IC50 ([15]; Glc2 substrate, mean and SD, triplicate, read-out: IC50 α-glc II, Glc2): 1.1 ± 0.48 µM
IC50 ([15]; range over the two activities (Glc2, Glc1), read-out: IC50 for α-glucosidase II): 0.83 to 1.1 µM
CC50 at 5 days [16]: > 500 µM
average weight lost at end of treatment ([17]; 100 mg/kg PO TID 10 days): 1.72 g
thymus finding at necropsy/histopathology ([17]; 100 mg/kg PO TID 10 days, associated with decreased thymus weight): lymphoid depletion
average weight lost at end of treatment ([17]; 100 mg/kg PO TID 10 days, not statistically significant): 4.53%
decreased ALP [17, 19]: 45%
decreased glucose [17, 19]: 29%
increased AST [17, 19]: 76%
mortality, general health, body weights, food consumption ([17]; 100 mg/kg PO three times daily, 10 days): neither mortality nor any noteworthy effects
